According to ChEMBL document CHEMBL1833864, “N'-(arylsulfonyl)pyrazoline-1-carboxamidines as novel, neutral 5-hydroxytryptamine 6 receptor (5-HT₆R) antagonists with unique structural features” (J Med Chem, 2011):

Assays:
[1] = target: 5-hydroxytryptamine receptor 6 (Homo sapiens, UniProt P50406); test: Displacement of [3H]-methyllysergic acid diethylamide from human 5-HT6 receptor expressed in CHO cells after 30 mins by liquid scintillation counting; format: cell-based
[2] = in vitro; conditions: human, hepatocytes
[3] = in vitro; conditions: Sprague-Dawley, rat, hepatocytes
[4] = target: Cytochrome P450 2C9 (Homo sapiens, UniProt P11712); test: Inhibition of CYP 2C9; format: ADME
[5] = Plasma protein binding in human at 5 uM by LC/MS/MS analysis; format: ADME, cell-free; conditions: read-out: PPB (converted)
[6] = Half life in Wistar rat plasma at 1 mg/kg, iv; format: ADME, organism-based; design: dose 1 mg/kg, route intravenous
[7] = target: Cytochrome P450 2C19 (Homo sapiens, UniProt P33261); test: Inhibition of CYP 2C19; format: ADME
[8] = target: Cytochrome P450 1A2 (Homo sapiens, UniProt P05177); test: Inhibition of CYP 1A2; format: ADME
[9] = target: 5-hydroxytryptamine receptor 2B (Homo sapiens, UniProt P41595); test: Inhibition of human 5-HT2B receptor
[10] = Bioavailability in Wistar rat at 10 mg/kg, ip; format: ADME, organism-based; conditions: in vivo
[11] = Half life in Wistar rat plasma at 10 mg/kg, po; format: ADME, organism-based; design: dose 10 mg/kg, route oral
[12] = target: Voltage-gated inwardly rectifying potassium channel KCNH2 (Homo sapiens, UniProt Q12809)
[13] = target: Cytochrome P450 3A4 (Homo sapiens, UniProt P08684); test: Inhibition of CYP 3A4; format: ADME
[14] = Ratio of drug level in brain to plasma in Wistar rat at 10 mg/kg, po; format: ADME, organism-based; design: dose 10 mg/kg, route oral; conditions: brain and plasma
[15] = tested on: Cavia porcellus; test: Cardiotoxicity in telemetered conscious freely moving Dunkin-Hartley guinea pig assessed as prolongation of electrocardiographic QTc interval at 100 mg/kg, sc administered for 120 mins; format: toxicity, organism-based; design: dose 100 mg/kg, route subcutaneous; conditions: in vivo, 2 h
[16] = Fraction unbound in rat brain homogenate at 1 uM after 6 hrs by […]; format: ADME, tissue-based
[17] = target: Cytochrome P450 2D6 (Homo sapiens, UniProt P10635); test: Inhibition of CYP 2D6; format: ADME
[18] = Oral bioavailability in Wistar rat at 10 mg/kg; format: ADME, organism-based; conditions: in vivo
[19] = tested on: LLC-PK1; conditions: pig
Description: Permeability across pig LLC-PK1 cell line overexpressing human MDR1 at 3 hrs by LC/MS analysis

[20] = Tmax in Wistar rat; format: ADME, organism-based; conditions: in vivo
[21] = target: 5-hydroxytryptamine receptor 2C (Homo sapiens, UniProt P28335); test: Inhibition of human 5-HT2C receptor
[22] = target: 5-hydroxytryptamine receptor 7 (Homo sapiens, UniProt P34969); test: Inhibition of human 5-HT7 receptor
[23] = target: 5-hydroxytryptamine receptor 1D (Homo sapiens, UniProt P28221); test: Inhibition of human 5-HT1D receptor
[24] = target: T1, 5-hydroxytryptamine receptor 1A (Homo sapiens, UniProt P08908); test: Inhibition of human 5-HT1A receptor
T1 sequence (P08908 whole entry): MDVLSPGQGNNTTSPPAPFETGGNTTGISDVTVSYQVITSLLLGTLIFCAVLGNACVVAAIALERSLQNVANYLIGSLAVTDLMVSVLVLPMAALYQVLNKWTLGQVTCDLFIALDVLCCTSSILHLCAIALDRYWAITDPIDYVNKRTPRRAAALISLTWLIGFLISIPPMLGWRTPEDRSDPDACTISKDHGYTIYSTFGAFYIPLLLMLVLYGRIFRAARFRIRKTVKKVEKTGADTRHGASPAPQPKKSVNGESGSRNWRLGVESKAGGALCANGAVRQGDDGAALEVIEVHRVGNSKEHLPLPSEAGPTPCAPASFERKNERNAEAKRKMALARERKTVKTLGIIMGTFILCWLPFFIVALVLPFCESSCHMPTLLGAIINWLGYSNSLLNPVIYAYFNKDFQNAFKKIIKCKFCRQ

[25] = target: 5-hydroxytryptamine receptor 2A (Homo sapiens, UniProt P28223); test: Inhibition of human 5-HT2A receptor
[26] = target: D(2) dopamine receptor (Homo sapiens, UniProt P14416); test: Inhibition of human dopamine D2 receptor
[27] = target: Muscarinic acetylcholine receptor M3 (Homo sapiens, UniProt P20309); test: Inhibition of human muscarinic M3 receptor
[28] = target: Muscarinic acetylcholine receptor M2 (Homo sapiens, UniProt P08172); test: Inhibition of human muscarinic M2 receptor
[29] = target: Muscarinic acetylcholine receptor M5 (Homo sapiens, UniProt P08912); test: Inhibition of human muscarinic M5 receptor
[30] = tested on: Cavia porcellus; test: Cardiotoxicity in telemetered conscious freely moving Dunkin-Hartley guinea pig assessed as prolongation of electrocardiographic QTc interval at 10 mg/kg, po measured up to 120 mins; format: toxicity, organism-based; design: dose 10 mg/kg, route oral; conditions: in vivo, 2 h
[31] = Inhibition of human sigma receptor
[32] = target: Muscarinic acetylcholine receptor M1 (Homo sapiens, UniProt P11229); test: Inhibition of human muscarinic M1 receptor
[33] = target: Muscarinic acetylcholine receptor M4 (Homo sapiens, UniProt P08173); test: Inhibition of human muscarinic M4 receptor
[34] = target: 5-hydroxytryptamine receptor 3A (Homo sapiens, UniProt P46098); test: Inhibition of human 5-HT3 receptor
[35] = tested on: Cavia porcellus; test: Cardiotoxicity in telemetered conscious freely moving Dunkin-Hartley guinea pig assessed as prolongation of electrocardiographic QTc interval at 50 mg/kg, po measured up to 120 mins; format: toxicity, organism-based; design: dose 50 mg/kg, route oral; conditions: in vivo, 2 h
[36] = Plasma protein binding in rat at 5 uM by LC/MS/MS analysis; format: ADME, cell-free; conditions: read-out: PPB (converted)

Chain of 5-hydroxytryptamine receptor 1D (P28221 whole entry): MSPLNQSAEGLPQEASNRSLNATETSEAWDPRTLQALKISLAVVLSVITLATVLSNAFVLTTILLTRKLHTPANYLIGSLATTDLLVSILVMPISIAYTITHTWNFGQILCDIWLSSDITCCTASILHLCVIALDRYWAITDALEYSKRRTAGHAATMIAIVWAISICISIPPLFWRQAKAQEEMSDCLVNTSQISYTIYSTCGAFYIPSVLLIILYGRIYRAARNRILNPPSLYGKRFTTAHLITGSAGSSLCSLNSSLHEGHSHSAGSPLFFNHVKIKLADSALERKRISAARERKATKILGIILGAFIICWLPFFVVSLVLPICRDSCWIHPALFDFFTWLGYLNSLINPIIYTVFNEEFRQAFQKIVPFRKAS
Chain of Voltage-gated inwardly rectifying potassium channel KCNH2 (Q12809 whole entry): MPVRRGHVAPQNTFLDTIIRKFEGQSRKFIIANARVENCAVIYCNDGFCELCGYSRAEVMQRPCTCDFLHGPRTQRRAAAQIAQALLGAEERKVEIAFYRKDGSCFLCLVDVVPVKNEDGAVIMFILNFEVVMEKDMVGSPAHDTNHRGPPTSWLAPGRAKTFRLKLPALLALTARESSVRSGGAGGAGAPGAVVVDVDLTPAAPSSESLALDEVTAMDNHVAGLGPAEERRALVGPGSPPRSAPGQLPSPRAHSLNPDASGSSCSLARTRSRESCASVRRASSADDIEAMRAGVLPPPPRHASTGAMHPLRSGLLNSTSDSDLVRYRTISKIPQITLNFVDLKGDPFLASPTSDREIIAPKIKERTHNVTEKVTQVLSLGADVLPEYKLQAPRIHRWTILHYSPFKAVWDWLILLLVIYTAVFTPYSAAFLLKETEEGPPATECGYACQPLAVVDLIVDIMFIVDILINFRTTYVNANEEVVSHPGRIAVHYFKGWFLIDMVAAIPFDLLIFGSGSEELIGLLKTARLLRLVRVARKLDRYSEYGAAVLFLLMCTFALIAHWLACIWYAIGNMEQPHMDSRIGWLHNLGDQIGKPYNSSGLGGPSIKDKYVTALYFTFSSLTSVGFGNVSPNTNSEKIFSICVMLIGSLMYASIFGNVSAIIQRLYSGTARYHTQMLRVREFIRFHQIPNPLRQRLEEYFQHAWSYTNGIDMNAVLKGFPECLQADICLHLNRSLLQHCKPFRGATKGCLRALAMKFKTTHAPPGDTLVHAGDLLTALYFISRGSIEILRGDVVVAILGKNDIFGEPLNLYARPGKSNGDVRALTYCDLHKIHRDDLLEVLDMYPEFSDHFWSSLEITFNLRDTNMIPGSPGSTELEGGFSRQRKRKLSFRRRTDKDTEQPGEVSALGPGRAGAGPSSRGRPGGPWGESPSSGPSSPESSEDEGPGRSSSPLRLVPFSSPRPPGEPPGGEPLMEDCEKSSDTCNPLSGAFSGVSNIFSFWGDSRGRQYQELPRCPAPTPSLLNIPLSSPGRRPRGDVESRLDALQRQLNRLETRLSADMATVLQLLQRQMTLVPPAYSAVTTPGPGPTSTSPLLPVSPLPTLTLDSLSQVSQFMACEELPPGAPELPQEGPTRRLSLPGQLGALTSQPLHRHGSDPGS
Chain of 5-hydroxytryptamine receptor 6 (P50406 whole entry): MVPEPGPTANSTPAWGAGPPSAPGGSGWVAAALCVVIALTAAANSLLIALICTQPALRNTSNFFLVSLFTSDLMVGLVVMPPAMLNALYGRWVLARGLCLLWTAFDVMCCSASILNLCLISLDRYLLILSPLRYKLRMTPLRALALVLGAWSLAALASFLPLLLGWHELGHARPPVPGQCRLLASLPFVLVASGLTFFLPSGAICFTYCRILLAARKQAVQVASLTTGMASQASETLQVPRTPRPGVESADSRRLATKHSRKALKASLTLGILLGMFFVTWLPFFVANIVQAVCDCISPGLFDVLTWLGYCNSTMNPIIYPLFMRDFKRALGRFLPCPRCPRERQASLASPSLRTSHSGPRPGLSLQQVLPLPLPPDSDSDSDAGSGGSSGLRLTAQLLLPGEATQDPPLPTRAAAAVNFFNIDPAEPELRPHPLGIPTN
Chain of D(2) dopamine receptor (P14416 whole entry): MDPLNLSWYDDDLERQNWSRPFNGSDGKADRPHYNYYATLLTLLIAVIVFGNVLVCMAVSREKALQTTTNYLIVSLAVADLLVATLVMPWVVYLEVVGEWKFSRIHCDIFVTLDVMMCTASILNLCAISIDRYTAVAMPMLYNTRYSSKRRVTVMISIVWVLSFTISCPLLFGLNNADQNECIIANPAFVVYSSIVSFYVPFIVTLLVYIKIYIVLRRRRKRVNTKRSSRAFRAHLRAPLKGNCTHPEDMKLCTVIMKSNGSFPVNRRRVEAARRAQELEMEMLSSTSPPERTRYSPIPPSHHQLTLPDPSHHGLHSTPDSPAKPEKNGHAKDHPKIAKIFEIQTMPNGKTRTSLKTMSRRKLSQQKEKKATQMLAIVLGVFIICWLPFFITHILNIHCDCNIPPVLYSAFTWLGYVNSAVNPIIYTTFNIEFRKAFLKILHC
Chain of 5-hydroxytryptamine receptor 2C (P28335 whole entry): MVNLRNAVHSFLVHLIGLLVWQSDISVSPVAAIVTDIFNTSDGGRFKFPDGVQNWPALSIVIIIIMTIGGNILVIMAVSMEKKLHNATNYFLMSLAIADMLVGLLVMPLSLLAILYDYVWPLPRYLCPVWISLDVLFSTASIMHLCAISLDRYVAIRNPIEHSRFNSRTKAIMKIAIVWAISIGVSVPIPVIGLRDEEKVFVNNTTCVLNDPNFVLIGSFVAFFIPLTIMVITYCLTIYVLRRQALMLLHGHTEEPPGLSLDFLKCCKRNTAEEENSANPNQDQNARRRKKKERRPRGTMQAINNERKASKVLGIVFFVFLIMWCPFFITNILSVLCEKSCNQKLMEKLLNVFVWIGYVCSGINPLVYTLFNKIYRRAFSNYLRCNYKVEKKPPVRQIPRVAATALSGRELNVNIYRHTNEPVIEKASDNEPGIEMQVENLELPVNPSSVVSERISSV
Chain of 5-hydroxytryptamine receptor 7 (P34969 whole entry): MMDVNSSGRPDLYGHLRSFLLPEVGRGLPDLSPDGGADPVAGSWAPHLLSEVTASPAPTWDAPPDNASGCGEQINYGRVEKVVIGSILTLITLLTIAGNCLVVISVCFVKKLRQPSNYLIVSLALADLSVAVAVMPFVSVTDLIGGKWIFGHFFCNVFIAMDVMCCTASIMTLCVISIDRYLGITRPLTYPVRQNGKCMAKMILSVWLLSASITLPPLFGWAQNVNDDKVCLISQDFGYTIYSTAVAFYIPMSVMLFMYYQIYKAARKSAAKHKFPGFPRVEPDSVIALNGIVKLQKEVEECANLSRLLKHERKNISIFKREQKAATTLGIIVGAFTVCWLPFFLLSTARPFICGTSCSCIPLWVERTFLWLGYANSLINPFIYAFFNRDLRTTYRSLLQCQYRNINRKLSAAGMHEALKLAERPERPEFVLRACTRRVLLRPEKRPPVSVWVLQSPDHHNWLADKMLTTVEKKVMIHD
Chain of 5-hydroxytryptamine receptor 2A (P28223 whole entry): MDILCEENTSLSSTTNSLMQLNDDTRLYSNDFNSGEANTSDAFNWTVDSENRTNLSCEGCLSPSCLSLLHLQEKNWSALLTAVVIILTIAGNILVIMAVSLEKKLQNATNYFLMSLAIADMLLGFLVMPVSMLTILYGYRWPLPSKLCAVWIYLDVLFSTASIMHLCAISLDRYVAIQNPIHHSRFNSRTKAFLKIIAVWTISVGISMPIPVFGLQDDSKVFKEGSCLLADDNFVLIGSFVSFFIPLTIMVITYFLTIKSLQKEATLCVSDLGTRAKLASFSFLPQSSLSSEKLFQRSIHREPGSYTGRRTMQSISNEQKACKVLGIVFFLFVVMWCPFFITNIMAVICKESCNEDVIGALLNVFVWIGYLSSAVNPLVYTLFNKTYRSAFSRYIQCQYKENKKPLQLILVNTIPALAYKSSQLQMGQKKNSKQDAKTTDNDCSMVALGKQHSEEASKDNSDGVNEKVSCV
Chain of Muscarinic acetylcholine receptor M4 (P08173 whole entry): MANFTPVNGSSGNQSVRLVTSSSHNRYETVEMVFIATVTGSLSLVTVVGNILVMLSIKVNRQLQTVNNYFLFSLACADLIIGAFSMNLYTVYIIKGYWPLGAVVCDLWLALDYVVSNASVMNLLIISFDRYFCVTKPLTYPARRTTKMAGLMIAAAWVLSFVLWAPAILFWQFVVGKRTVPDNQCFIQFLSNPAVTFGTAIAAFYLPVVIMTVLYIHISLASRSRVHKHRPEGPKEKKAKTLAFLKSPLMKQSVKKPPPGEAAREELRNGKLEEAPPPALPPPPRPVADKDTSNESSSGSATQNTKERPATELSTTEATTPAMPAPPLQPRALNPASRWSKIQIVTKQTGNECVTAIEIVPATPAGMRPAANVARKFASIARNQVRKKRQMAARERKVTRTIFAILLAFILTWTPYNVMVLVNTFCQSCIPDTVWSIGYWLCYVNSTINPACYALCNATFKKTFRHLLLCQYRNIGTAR
Chain of Cytochrome P450 2C19 (P33261 whole entry): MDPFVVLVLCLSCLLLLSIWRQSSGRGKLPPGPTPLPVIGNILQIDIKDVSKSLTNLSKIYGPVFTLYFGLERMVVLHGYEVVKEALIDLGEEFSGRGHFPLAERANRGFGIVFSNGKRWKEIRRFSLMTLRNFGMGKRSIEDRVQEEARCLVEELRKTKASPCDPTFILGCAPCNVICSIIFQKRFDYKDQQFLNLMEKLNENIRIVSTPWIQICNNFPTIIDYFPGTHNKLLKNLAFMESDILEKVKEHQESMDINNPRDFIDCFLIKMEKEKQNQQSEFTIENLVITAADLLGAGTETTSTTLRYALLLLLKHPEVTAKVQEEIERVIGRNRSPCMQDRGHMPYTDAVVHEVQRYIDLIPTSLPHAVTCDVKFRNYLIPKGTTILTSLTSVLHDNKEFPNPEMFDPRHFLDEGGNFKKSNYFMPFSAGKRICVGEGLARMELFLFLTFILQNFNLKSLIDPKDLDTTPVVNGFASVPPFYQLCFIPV

SMILES | Ki [1] [µM] | hepatocyte CLint at 1 ug/mL [2] [µL/min/1e6 cells] | hepatocyte CLint at 1 ug/mL [3] [µL/min/1e6 cells] | further results
CCN/C(=N\S(=O)(=O)c1cccc(Cl)c1)N1CCC(C)=N1 | 0.231 | – | – | –
CCC1C=NN(/C(=N/S(=O)(=O)c2ccccc2Cl)NC(C)C)C1 (stereo unspecified) | > 1 | – | – | –
CCN=C(NS(=O)(=O)c1cccc(Cl)c1)N1N=CCC1c1ccc(F)cc1 (racemic) | 0.138 | 107 | 126 | –
CCC1C=NN(/C(=N/S(=O)(=O)c2cccc(Cl)c2)NC)C1 (stereo unspecified) | 0.0178 | – | – | –
CCC1C=NN(/C(=N/S(=O)(=O)c2ccccc2Cl)Nc2ccccc2)C1 (stereo unspecified) | > 1 | – | – | –
CCN=C(NS(=O)(=O)c1cccc(Cl)c1)N1N=CC[C@@H]1c1ccccc1 | – | – | 107 | –
CCN/C(=N\S(=O)(=O)c1cc(Cl)ccc1Cl)N1CC(CC)C=N1 (stereo unspecified) | 0.119 | – | 116 | –
CCN=C(NS(=O)(=O)c1cccc(Cl)c1)N1N=CC[C@H]1c1ccccc1 | – | 107 | 116 | –
CCN/C(=N\S(=O)(=O)c1cccc(Cl)c1)N1N=CCC1c1ccccc1 (racemic) | – | 73 | 116 | Ki [21]: > 1 µM; Ki [22]: > 1 µM; Ki ([23]; read-out: Ki): > 1 µM; Ki ([24]; read-out: Ki): > 1 µM; IC50 [12]: > 10 µM; Ki [25]: > 1 µM; Ki [26]: > 1 µM; permeability ([19]; LLC-PK1, 3 h): 38.5%
CCN/C(=N\S(=O)(=O)c1c(C)nn(C)c1Cl)N1CC(CC)C=N1 (stereo unspecified) | – | 11 | 53 | –
CCN/C(=N\S(=O)(=O)c1ccc(S(C)(=O)=O)cc1)N1CC(CC)C=N1 (stereo unspecified) | – | 4 | 20 | –
CCN/C(=N\S(=O)(=O)c1cccc(Cl)c1)N1CC2(C=N1)CCNCC2 | – | 3 | 25 | Ki [27]: 10 µM; Ki ([23]; read-out: pKi (converted)): 10 µM; Ki ([24]; read-out: pKi (converted)): 10 µM; fraction unbound at 5 µM [5]: 0.34; Ki [28]: 10 µM; IC50 [12]: 7.94 µM; Ki [29]: 10 µM; Activity [30]: Non-toxic; pKi [31]: 5; Ki [32]: 10 µM; Ki [33]: 10 µM; Ki [34]: 10 µM; permeability ([19]; llc-pk1, 3 h): 14.7%; Activity [35]: Toxic; fraction unbound at 5 µM [36]: 0.41
CCN/C(=N\S(=O)(=O)c1cccc(Cl)c1)N1CC(CC)C=N1 (racemic) | – | – | – | Ki [21]: > 1 µM; Ki [22]: > 1 µM; Ki ([23]; read-out: Ki): > 1 µM; Ki ([24]; read-out: Ki): > 1 µM; Ki [25]: > 1 µM; Ki [26]: > 1 µM
CCN/C(=N\S(=O)(=O)c1c(Cl)cccc1Cl)N1CC(CC)C=N1 (stereo unspecified) | 0.197 | – | 126 | –
CCN/C(=N\S(=O)(=O)c1cccc(Cl)c1)N1N=CCC1c1ccncc1 (racemic) | 0.322 | 50 | 87 | –
CCN/C(=N\S(=O)(=O)c1cccc(Cl)c1)N1CC(CC)(CC)C=N1 | 0.0499 | – | – | –
CCC1C=NN(/C(=N/S(=O)(=O)c2cccc(Cl)c2)N(C)C)C1 (stereo unspecified) | > 1 | – | – | –

Continued, in another order:

Ki [1] [µM] | hepatocyte CLint at 1 ug/mL [2] [µL/min/1e6 cells] | hepatocyte CLint at 1 ug/mL [3] [µL/min/1e6 cells] | SMILES | further results
0.0082 | 92 | 198 | CCN/C(=N\S(=O)(=O)c1cccc(Cl)c1)N1N=CCC1c1ccco1 (racemic) | –
0.0266 | 46 | 92 | CCN/C(=N\S(=O)(=O)c1cccc(OC)c1)N1CC(CC)C=N1 (stereo unspecified) | –
0.0241 | – | – | CCN/C(=N\S(=O)(=O)c1cccc(Cl)c1)N1CC(C)(C)C=N1 | IC50 [4]: > 10 µM; fraction unbound at 5 µM [5]: 0.37; half-life [6]: 2 h; IC50 [7]: > 10 µM; IC50 [8]: > 10 µM; Ki [9]: 7.94 µM; bioavailability [10]: 45%; half-life [11]: 2 h; IC50 [12]: > 10 µM; IC50 [13]: > 10 µM; Kp [14]: 1; Activity [15]: Non-toxic; fraction unbound at 6 h, 1 µM [16]: 0.01; IC50 [17]: > 10 µM; bioavailability [18]: 7%; permeability ([19]; llc-pk1, 3 h): 41%; Tmax [20]: 0.5 h
0.092 | – | – | CCC1C=NN(/C(=N/S(=O)(=O)c2ccccc2Cl)NCc2ccccc2)C1 (stereo unspecified) | –
0.092 | – | – | CCN=C(NS(=O)(=O)c1cccc(Cl)c1)N1CC(CF)(CF)C=N1 | –
0.0242 | – | – | CCC1C=NN(/C(N)=N/S(=O)(=O)c2cccc(Cl)c2)C1 (stereo unspecified) | –
0.0079 | 92 | 198 | CCN/C(=N\S(=O)(=O)c1ccc(Cl)c(Cl)c1)N1CC(CC)C=N1 (stereo unspecified) | –
0.0027 | 36 | 116 | CCN/C(=N\S(=O)(=O)c1cccc(Cl)c1F)N1CC(CC)C=N1 (stereo unspecified) | –
0.0085 | – | – | CCNC(=N[S+]([O-])c1sc2ccc(Cl)cc2c1C)N1CC(CC)C=N1 (stereo unspecified) | –
0.0274 | 51 | 116 | CCN/C(=N\S(=O)(=O)c1cccc(C)c1)N1CC(CC)C=N1 (stereo unspecified) | –
0.0339 | – | – | CCN/C(=N\S(=O)(=O)c1ccccc1)N1CC(CC)C=N1 (stereo unspecified) | –
0.0339 | – | – | CCN/C(=N\S(=O)(=O)c1cccc(Cl)c1)N1CCC=N1 | –
0.0179 | 27 | 116 | CCN/C(=N\S(=O)(=O)c1cccc(C(F)(F)F)c1)N1CC(CC)C=N1 (stereo unspecified) | –
0.0278 | 39 | 99 | CCN/C(=N\S(=O)(=O)c1ccccc1Cl)N1CC(CC)C=N1 (stereo unspecified) | –
0.0052 | – | – | CCN/C(=N\S(=O)(=O)c1cccc(Cl)c1)N1CC2(C=N1)CCCCC2 | –
0.0146 | – | – | CCCN/C(=N\S(=O)(=O)c1cccc(Cl)c1)N1CC(CC)C=N1 (stereo unspecified) | –
0.0172 | 41 | 139 | CCN/C(=N\S(=O)(=O)c1ccc2ccccc2c1)N1CC(CC)C=N1 (stereo unspecified) | –
0.008 | – | – | CCN/C(=N\S(=O)(=O)c1cccc(Cl)c1)N1CC(C)C=N1 (stereo unspecified) | –
0.0064 | – | – | CCN/C(=N\S(=O)(=O)c1cccc(Cl)c1)N1CC2(C=N1)CCCC2 | –
0.0079 | 20 | 116 | CCN/C(=N\S(=O)(=O)c1c(Cl)nc2sccn12)N1CC(CC)C=N1 (stereo unspecified) | –
